Drawing on PMC5893361 (International Journal for Parasitology, 2018), this text covers Kd for two compounds.

What is called Kd is the constant that tells how readily two partners part at equilibrium.

The target in assay [1] is T1, BmVAL-1 (Brugia malayi, UniProt A0A0J9Y762).
T1 construct: gene bma-scl-11.3; mature protein without 16-residue signal peptide, two vector-derived C-terminal residues; 206 residues; secreted from Nicotiana benthamiana; N-glycosylated at N52 and N138
The assay can be described thus: radioligand saturation binding, Q-sepharose adsorption.

Assay [2] has as its target T2, Pry1 (Saccharomyces cerevisiae, UniProt P47032).
T2 construct: construct not described here (full length secreted protein or CAP domain)
T2 sequence (P47032 20-299): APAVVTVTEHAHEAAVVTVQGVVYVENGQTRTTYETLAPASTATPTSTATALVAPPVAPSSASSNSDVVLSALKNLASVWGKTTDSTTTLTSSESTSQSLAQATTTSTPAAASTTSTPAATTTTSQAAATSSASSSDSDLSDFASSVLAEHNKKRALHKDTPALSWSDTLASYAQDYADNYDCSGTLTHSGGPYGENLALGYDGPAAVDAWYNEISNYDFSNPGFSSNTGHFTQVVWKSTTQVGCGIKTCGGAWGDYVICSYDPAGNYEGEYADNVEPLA
Described as above.

Read-outs that look alike come from different tables or passages of the source.

T1 sequence (A0A0J9Y762 entry or part of it): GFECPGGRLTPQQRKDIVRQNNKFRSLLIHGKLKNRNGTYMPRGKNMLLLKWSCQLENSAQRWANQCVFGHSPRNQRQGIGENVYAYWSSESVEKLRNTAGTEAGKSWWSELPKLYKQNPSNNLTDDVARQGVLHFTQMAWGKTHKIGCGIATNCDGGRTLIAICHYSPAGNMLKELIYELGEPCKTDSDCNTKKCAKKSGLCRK

Consider `CCCCCCCCCCCCCCCC(=O)O` [palmitate], for which the Kd in assay [1] (read-out: Kd) was 83000 nM.
On to `CC(C)CCC[C@@H](C)[C@H]1CC[C@H]2[C@@H]3CC=C4C[C@@H](O)CC[C@]4(C)[C@H]3CC[C@]12C` [cholesterol], for which the Kd in assay [2] was 1900 nM; in assay [1], 990 nM.
